According to patent US5506239A, “Carbostyril derivative and platelets aggregation inhibitory agent” (Otsuka Pharmaceutical Co., Ltd., priority 1991, dated 1996):

Legend:
platelets [1] = assay: Platelets aggregation inhibitory activity (method of Born et al.), collagen-induced, human PRP (Pharmacological Test I); type: cell-based, man; settings: Homo sapiens, Platelet, 20 μg/ml collagen, 37° C., read-out: IC50 Collagen (50% platelets aggregation inhibition)
Protocol: (§1) The platelets aggregation inhibitory activity of each test compound was measured by the method of Born et al. [J. Physiol., London, 162, 67 (1962)], using Platelets Aggregation Tracer manufactured by Nikoh Bioscience Co., Ltd.
(§2) 9 volumes of a blood collected from person was mixed with 1 volume of a 3.8% aqueous sodium citrate solution. Part of the mixture was subjected to centrifugation at 1,100 rpm for 10 minutes to obtain a platelet rich plasma (PRP). The remainder of the mixture was also subjected to centrifugation at 3,000 rpm for 10 minutes to obtain a platelet poor plasma (PPP).
(§3) The number of platelets in the PRP was measured using Coulter Counter manufactured by Coulter Electronics Inc. Then, the PRP was diluted with the PPP so that the number of platelets in the dilution became 300,000, whereby a PRP solution was prepared.
(§4) 200 μl of this PRP solution and 2 ml of a solution containing a test compound at a given concentration were placed in an aggregation measurement cell and heated at 37° C. for 1 minute. Thereto was added 20 μl of adenosine diphosphate (ADP manufactured by Sigma Co.) or a collagen suspension (Collagen Reagent manufactured by Horm, Hormon-Chemie, Gmbh) to induce aggregation of platelets. The resulting mixture in the cell was measured for change of transmittance, after which a platelets aggregation curve was prepared. Incidentaly, the concentration of ADP or collagen was selected so that the final Concentration became 7.5 μM or 20 μg/ml.
(§5) Using the platelets aggregation curve, there was calculated a maximum aggregation rate (MAR) of platelets using the followoing formula: […]
(§6) wherein a represents a transmittance of the PRP obtained in the same manner; c represents a transmittance of the PPP obtained in the same manner; and b represents a transmittance at the maximum change, of the PRP solution containng the test compound and the aggregation inducer.
(§7) A MAR was also calculated as above, for the control containing no test compound.
(§8) Using the above two MARs, there were calculated platelets aggregation inhibitions (%) of each test compound at various concentrations using the following formula.
(§9) Inhibition=[1-(MAR of PRP solution containing test compound)/(MAR of PRP
(§10) solution containing no test compound)]×100
(§11) Using the above obtained platelets aggregation inhibitions (%) of each test compound at various concentrations, there was calculated a concentration (IC50) of each test compound for 50% platelets aggregation inhibition.

platelets [2] = assay: Platelets aggregation inhibitory activity (method of Born et al.), ADP-induced, human PRP (Pharmacological Test I); type: cell-based, man; settings: Homo sapiens, Platelet, 7.5 μM ADP, 37° C., read-out: IC50 ADP (50% platelets aggregation inhibition)
Protocol: as §1, §2, §3, §4, §5, §6, §7, §8, §9, §10, §11

CCN(CC)C(=O)CN(CCCCOc1ccc2[nH]c(=O)ccc2c1)CC1CCCCCCC1 [Example 65]
IC50 (platelets [1]): 14 µM | IC50 (platelets [2]): 11 µM

COc1ccc(CN(CCN2CCC(O)CC2)S(=O)(=O)CCCCOc2ccc3[nH]c(=O)ccc3c2)cc1OC [Example 96]
IC50 (platelets [1]): 6.5 µM | IC50 (platelets [2]): 8.7 µM

O=c1ccc2cc(OCCCCS(=O)(=O)N(CCN3CCC(O)CC3)Cc3cccs3)ccc2[nH]1 [Example 90]
IC50 (platelets [1]): 5.4 µM | IC50 (platelets [2]): 5.3 µM

O=C(C1CCCCCCC1)N(CCCCOc1ccc2[nH]c(=O)ccc2c1)CCN1CCC(O)CC1 [Example 41]
IC50 (platelets [1]): 11 µM | IC50 (platelets [2]): 8.7 µM

CCN(CC)CCN(CC1CCCCCC1)S(=O)(=O)CCCOc1ccc2[nH]c(=O)ccc2c1 [Example 110]
IC50 (platelets [1]): 8.3 µM | IC50 (platelets [2]): 4.7 µM

O=c1ccc2cc(OCCCCCS(=O)(=O)N(CCN3CCC(O)CC3)CC3CCCCCCC3)ccc2[nH]1 [Example 80]
IC50 (platelets [1]): 15 µM | IC50 (platelets [2]): 13 µM

O=c1ccc2cc(OCCCCCN(CCN3CCCS3(=O)=O)Cc3ccccc3)ccc2[nH]1 [Example 56]
IC50 (platelets [1]): 7.7 µM | IC50 (platelets [2]): 14 µM

O=c1ccc2cc(OCCCS(=O)(=O)N(CCN3CCC(O)CC3)CC3CCCCCCC3)ccc2[nH]1 [Example 78]
IC50 (platelets [1]): 0.38 µM | IC50 (platelets [2]): 1.4 µM

O=c1ccc2cc(OCCCCCN(CCO)Cc3ccccc3)ccc2[nH]1 [Example 67]
IC50 (platelets [1]): 2.9 µM | IC50 (platelets [2]): 4.5 µM

O=c1ccc2cc(OCCCS(=O)(=O)N(CCN3C[C@H](O)[C@@H](O)C3)CC3CCCCCCC3)ccc2[nH]1 [Example 102]
IC50 (platelets [1]): 15 µM | IC50 (platelets [2]): 9.5 µM

CN(C1CCCCC1)S(=O)(=O)CCCCOc1ccc2[nH]c(=O)ccc2c1 [Example 77]
IC50 (platelets [1]): 4.9 µM | IC50 (platelets [2]): 2.1 µM

O=C(CN(CC1CCCCCCC1)S(=O)(=O)CCCOc1ccc2[nH]c(=O)ccc2c1)N1CCC(O)CC1 [Example 81]
IC50 (platelets [1]): 11 µM | IC50 (platelets [2]): 6.1 µM

O=c1ccc2cc(OCCCCN(CCNCCO)CC3CCCCCCC3)ccc2[nH]1 [Example 60]
IC50 (platelets [1]): 5.3 µM | IC50 (platelets [2]): 15 µM

O=C(NCCCOc1ccc2[nH]c(=O)ccc2c1)N(CCN1CCC(O)CC1)CC1CCCCCCC1 [Example 131]
IC50 (platelets [1]): 1.3 µM | IC50 (platelets [2]): 2.4 µM

O=c1ccc2cc(OCCCS(=O)(=O)N(CCN3CCN(CCO)CC3)CC3CCCCCCC3)ccc2[nH]1 [Example 99]
IC50 (platelets [1]): 3.5 µM | IC50 (platelets [2]): 2.9 µM

CC(=O)NCCN(CC1CCCCCCC1)S(=O)(=O)CCCCOc1ccc2[nH]c(=O)ccc2c1 [Example 112]
IC50 (platelets [1]): 0.69 µM | IC50 (platelets [2]): 0.83 µM

O=c1ccc2cc(OCCCCS(=O)(=O)N(CCN3CCC(O)CC3)C3CCCCCCC3)ccc2[nH]1 [Example 88]
IC50 (platelets [1]): 1.4 µM | IC50 (platelets [2]): 2.8 µM

CCN(CC)CC(CO)N(CC1CCCCCCC1)S(=O)(=O)CCCCOc1ccc2[nH]c(=O)ccc2c1 (stereo not drawn) [Example 107]
IC50 (platelets [1]): 3.2 µM | IC50 (platelets [2]): 3.4 µM

CCN1C[C@H](O)C[C@H]1CN(CCCCOc1ccc2[nH]c(=O)ccc2c1)CC1CCCCCCC1 [Example 71]
IC50 (platelets [1]): 7.4 µM | IC50 (platelets [2]): 18 µM

O=c1ccc2cc(OCCCS(=O)(=O)N(CCN3CCC(O)CC3)CC3CCCCO3)ccc2[nH]1 (stereo not drawn) [Example 84]
IC50 (platelets [1]): 9.1 µM | IC50 (platelets [2]): 9.5 µM

O=c1ccc2cc(OCCCS(=O)(=O)N(CCN3CCCCC3)CC3CCCCCCC3)ccc2[nH]1 [Example 97]
IC50 (platelets [1]): 18 µM | IC50 (platelets [2]): 14 µM

O=C([C@@H]1C[C@@H](O)CN1CCCCOc1ccc2[nH]c(=O)ccc2c1)N1CCCCC1 [Example 74]
IC50 (platelets [1]): 20 µM | IC50 (platelets [2]): 17 µM

O=C(c1ccccc1)N(CCCCOc1ccc2[nH]c(=O)ccc2c1)CCN1CCC(O)CC1 [Example 42]
IC50 (platelets [1]): 13 µM | IC50 (platelets [2]): 20 µM

Cc1ccc(CN(CCN2CCC(O)CC2)S(=O)(=O)CCCCOc2ccc3[nH]c(=O)ccc3c2)cc1 [Example 94]
IC50 (platelets [1]): 2.3 µM | IC50 (platelets [2]): 1.4 µM

O=c1ccc2cc(OCCCS(=O)(=O)N(CCN3CCC4(CC3)OCCO4)CC3CCCCCCC3)ccc2[nH]1 [Example 101]
IC50 (platelets [1]): 3.2 µM | IC50 (platelets [2]): 2.9 µM

O=c1ccc2cc(OCCCCN(CCN3CCC[C@H]3CO)CC3CCCCCCC3)ccc2[nH]1 [Example 49]
IC50 (platelets [1]): 22 µM | IC50 (platelets [2]): 6.9 µM

O=c1ccc2cc(OCCCCN(CCN3CCC(O)CC3)CC3CCCCO3)ccc2[nH]1 (stereo not drawn) [Example 24]
IC50 (platelets [1]): 14 µM | IC50 (platelets [2]): 14 µM
